What was measured:
Karpas-299 cell line = assay: CellTiter-Glo cell proliferation inhibition on Karpas-299 cell line; format: cell-based; conditions: Homo sapiens, 96 h, Karpas-299 cells, 5000 cells/well, 4 days drug treatment
In short: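 CellTiter-Glo luminescence measured after 4-day compound exposure (0.5% DMSO final) of Karpas-299 cells seeded at 5000/well in RPMI-1640 with 10% FBS, 37 °C, 5% CO2. IC50 derived from percent inhibition relative to vehicle wells.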

cytochrome P450 1A2 = target: T1, cytochrome P450 1A2 (Homo sapiens, UniProt P05177); assay: Inhibitory activity on cytochrome P450 1A2; format: in vitro ADME; conditions: no significant inhibition
T1 sequence (P05177 1-516): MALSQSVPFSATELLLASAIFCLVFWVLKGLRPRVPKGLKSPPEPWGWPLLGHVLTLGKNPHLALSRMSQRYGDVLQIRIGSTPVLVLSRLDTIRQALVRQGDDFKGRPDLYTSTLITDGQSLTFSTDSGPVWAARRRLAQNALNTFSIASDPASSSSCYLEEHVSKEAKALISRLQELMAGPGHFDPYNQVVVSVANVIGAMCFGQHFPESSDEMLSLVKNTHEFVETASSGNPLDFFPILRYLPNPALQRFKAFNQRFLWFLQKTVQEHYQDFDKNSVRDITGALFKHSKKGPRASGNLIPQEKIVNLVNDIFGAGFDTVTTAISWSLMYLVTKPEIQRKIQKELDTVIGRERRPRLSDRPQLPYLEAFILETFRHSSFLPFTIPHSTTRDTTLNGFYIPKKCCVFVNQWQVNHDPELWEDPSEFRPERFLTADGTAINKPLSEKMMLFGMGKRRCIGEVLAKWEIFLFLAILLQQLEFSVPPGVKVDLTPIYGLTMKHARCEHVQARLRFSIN

cytochrome P450 2C19 = cytochrome P450 2C19 (Homo sapiens, UniProt P33261); assay: Inhibitory activity on cytochrome P450 2C19; format: in vitro ADME; conditions: no significant inhibition
L1196M mutant ALK kinase = target: T2, L1196M mutant ALK kinase (Homo sapiens, UniProt Q9UM73, L1196M); assay: HTRF KinEASE-TK assay, inhibitory activity on L1196M mutant ALK kinase; format: biochemical; conditions: L1196M mutant ALK 1 ng/μl, substrate 1 μM, ATP 5 μM, 30° C. 35 minutes, read-out: Inhibition on ALK kinases (L1196M mutant), IC50
T2 construct: purchased Sino-US Crown Bioscience, Inc. batch number ALKm_20110923
In short: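 HTRF TK assay: mutant kinase 1 ng/μl, substrate 1 μM, ATP 5 μM, 5 mM MgCl2, 1 mM DTT, 1% DMSO, 35 min at 30 °C. 665/615 ratio read; inhibition normalised to no-compound and 10.4 μM LDK-378 controls; IC50 from curve fit.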

cytochrome P450 2D6 = cytochrome P450 2D6 (Homo sapiens, UniProt P10635); assay: Inhibitory activity on cytochrome P450 2D6; format: in vitro ADME; conditions: no significant inhibition
cytochrome P450 2C9 = cytochrome P450 2C9 (Homo sapiens, UniProt P11712); assay: Inhibitory activity on cytochrome P450 2C9; format: in vitro ADME; conditions: no significant inhibition
Chain of cytochrome P450 2C9 (P11712 whole entry): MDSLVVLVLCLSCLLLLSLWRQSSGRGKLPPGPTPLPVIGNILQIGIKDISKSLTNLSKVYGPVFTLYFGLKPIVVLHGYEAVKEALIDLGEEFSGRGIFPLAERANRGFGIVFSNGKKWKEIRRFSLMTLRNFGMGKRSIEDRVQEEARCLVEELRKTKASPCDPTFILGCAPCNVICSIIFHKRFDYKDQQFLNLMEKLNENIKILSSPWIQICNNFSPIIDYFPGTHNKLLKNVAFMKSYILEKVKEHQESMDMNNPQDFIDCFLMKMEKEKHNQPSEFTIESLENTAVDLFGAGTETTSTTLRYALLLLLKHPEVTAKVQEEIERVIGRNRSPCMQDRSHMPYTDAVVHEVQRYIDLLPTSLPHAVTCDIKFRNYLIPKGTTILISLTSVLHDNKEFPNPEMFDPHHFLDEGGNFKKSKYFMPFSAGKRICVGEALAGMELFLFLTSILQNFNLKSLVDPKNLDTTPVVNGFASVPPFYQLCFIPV

Chain of cytochrome P450 2C19 (P33261 whole entry): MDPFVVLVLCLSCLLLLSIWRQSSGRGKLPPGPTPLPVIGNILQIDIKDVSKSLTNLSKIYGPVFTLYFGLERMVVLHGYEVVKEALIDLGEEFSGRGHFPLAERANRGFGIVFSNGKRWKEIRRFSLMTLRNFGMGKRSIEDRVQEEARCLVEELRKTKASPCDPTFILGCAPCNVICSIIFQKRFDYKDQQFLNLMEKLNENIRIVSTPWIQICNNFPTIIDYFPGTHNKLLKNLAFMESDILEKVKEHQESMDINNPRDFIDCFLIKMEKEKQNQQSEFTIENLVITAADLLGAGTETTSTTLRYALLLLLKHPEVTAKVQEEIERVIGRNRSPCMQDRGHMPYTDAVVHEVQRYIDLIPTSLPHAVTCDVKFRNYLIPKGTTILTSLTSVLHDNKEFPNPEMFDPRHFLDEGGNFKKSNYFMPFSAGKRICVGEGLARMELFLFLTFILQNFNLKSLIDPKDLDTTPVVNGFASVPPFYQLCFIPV
T2 sequence (Q9UM73 19-1620 L1196M): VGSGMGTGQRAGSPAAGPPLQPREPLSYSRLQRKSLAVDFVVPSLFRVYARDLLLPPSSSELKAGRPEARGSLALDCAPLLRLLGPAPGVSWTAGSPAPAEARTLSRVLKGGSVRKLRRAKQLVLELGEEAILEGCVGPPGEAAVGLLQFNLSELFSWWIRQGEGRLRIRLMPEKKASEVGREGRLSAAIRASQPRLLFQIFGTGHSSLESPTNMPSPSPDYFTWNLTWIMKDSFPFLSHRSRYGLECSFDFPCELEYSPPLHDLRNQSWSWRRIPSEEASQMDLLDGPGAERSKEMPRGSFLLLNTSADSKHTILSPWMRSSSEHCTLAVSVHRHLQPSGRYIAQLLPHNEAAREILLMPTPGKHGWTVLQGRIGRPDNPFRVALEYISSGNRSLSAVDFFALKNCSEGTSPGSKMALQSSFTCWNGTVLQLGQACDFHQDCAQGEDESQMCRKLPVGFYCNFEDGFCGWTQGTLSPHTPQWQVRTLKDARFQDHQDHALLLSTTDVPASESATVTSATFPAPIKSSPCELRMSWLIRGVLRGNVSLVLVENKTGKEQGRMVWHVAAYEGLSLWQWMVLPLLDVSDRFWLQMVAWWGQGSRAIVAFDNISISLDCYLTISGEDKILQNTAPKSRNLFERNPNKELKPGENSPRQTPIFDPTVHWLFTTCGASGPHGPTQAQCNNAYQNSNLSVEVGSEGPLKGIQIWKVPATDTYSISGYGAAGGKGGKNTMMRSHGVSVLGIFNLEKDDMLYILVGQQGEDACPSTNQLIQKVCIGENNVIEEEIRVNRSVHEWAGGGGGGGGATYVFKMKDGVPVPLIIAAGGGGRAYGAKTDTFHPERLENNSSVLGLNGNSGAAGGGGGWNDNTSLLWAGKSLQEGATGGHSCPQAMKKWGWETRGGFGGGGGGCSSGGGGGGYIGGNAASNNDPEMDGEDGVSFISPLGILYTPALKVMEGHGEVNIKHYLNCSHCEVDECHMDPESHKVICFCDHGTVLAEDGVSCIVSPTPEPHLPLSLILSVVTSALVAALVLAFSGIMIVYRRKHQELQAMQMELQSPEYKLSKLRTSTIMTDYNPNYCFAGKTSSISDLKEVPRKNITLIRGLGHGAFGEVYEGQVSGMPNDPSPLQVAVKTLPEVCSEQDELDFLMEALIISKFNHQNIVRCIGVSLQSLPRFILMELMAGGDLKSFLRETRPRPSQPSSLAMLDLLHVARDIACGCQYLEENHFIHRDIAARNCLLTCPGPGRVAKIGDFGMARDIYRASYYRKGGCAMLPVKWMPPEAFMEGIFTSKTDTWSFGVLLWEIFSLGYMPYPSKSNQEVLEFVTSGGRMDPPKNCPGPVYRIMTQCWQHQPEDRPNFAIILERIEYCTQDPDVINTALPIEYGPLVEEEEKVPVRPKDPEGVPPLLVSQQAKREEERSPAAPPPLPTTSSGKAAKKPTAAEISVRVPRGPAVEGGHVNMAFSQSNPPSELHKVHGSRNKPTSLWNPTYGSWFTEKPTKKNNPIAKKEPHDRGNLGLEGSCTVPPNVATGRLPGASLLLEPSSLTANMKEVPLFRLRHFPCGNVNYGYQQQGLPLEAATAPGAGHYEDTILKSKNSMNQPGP
Chain of cytochrome P450 2D6 (P10635 whole entry): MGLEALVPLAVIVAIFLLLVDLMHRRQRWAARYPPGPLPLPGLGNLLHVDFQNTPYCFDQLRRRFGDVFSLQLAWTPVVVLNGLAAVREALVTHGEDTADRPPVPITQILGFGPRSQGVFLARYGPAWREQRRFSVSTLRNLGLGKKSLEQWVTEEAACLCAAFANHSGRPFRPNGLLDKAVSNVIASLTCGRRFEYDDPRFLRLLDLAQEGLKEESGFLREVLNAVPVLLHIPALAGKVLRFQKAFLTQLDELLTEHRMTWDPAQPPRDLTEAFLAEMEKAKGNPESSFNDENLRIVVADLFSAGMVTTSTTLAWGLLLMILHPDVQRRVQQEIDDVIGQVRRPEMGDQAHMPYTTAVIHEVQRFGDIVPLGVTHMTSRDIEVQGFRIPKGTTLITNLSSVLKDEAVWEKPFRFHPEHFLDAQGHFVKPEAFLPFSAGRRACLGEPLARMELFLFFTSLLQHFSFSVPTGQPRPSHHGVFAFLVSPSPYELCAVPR

CC(C)CS(=O)(=O)c1nn(C)cc1Nc1nc(Nc2ccc(C3CCN(C)CC3)cc2OC2CC2)ncc1Cl [Final product 43]
IC50 (Karpas-299 cell line): 0.026 µM | IC50 (cytochrome P450 1A2): > 10 µM | IC50 (cytochrome P450 2C19): > 10 µM | IC50 (L1196M mutant ALK kinase): 0.012 µM | IC50 (cytochrome P450 2D6): > 10 µM | IC50 (cytochrome P450 2C9): > 10 µM

CC(C)S(=O)(=O)c1nn(C)cc1Nc1nc(Nc2cc(Cl)c(C3CCN(C)CC3)cc2OC2CC2)ncc1Cl [Final product 47]
IC50 (Karpas-299 cell line): 0.015 µM | IC50 (cytochrome P450 1A2): > 10 µM | IC50 (cytochrome P450 2C19): > 10 µM | IC50 (L1196M mutant ALK kinase): 0.01 µM | IC50 (cytochrome P450 2D6): > 10 µM | IC50 (cytochrome P450 2C9): > 10 µM

Cc1cc(Nc2ncc(Cl)c(Nc3cn(C)nc3S(=O)(=O)C(C)C)n2)c(OC2CC2)cc1C1CCN(CCN(C)C)CC1 [Final product 146, 5-chloro-N^2-(2-cyclopropoxy-4-(1-(2-(dimethylamino)ethyl)piperidin-4-yl)-5-methylphenyl)-N^4-(3-(isopropylsulfonyl)-1-methyl-1H-pyrazol-4-yl)-pyrimidin-2,4-diamine]
IC50 (Karpas-299 cell line): 0.015 µM | IC50 (cytochrome P450 1A2): > 10 µM | IC50 (cytochrome P450 2C19): > 10 µM | IC50 (L1196M mutant ALK kinase): 0.005 µM | IC50 (cytochrome P450 2D6): > 10 µM | IC50 (cytochrome P450 2C9): > 10 µM

CC(=O)N1CCC(c2cc(OC3CC3)c(Nc3ncc(Cl)c(Nc4cn(C)nc4S(=O)(=O)C(C)C)n3)cc2C)CC1 [Final product 160, 1-acetyl-4-(4-(5-chloro-4-(3-(isopropylsulfonyl)-1-methyl-1H-pyrazol-4-amino)pyrimidin-2-amine)-5-cyclopropoxy-2-methylphenyl)piperidine]
IC50 (Karpas-299 cell line): 0.014 µM | IC50 (cytochrome P450 1A2): > 10 µM | IC50 (cytochrome P450 2C19): > 10 µM | IC50 (L1196M mutant ALK kinase): 0.009 µM | IC50 (cytochrome P450 2D6): > 10 µM | IC50 (cytochrome P450 2C9): > 10 µM

Cc1cc(Nc2ncc(Cl)c(Nc3cn(C)nc3S(=O)(=O)C(C)C)n2)c(OC2CC2)cc1C1CCN(C(=O)C(F)(F)F)CC1 [Final product 161, 1-trifluoroacetyl-4-(4-(5-chloro-4-(3-(isopropylsulfonyl)-1-methyl-1H-pyrazol-4-amino)pyrimidin-2-amine)-5-cyclopropoxy-2-methylphenyl)piperidine]
IC50 (Karpas-299 cell line): 0.027 µM | IC50 (cytochrome P450 1A2): > 10 µM | IC50 (cytochrome P450 2C19): > 10 µM | IC50 (L1196M mutant ALK kinase): 0.043 µM | IC50 (cytochrome P450 2D6): > 10 µM | IC50 (cytochrome P450 2C9): > 10 µM

CC(C)S(=O)(=O)c1nn(C)cc1Nc1nc(Nc2ccc(C3CCN(C)CC3)cc2OC2CC2)ncc1Cl [Final product 40]
IC50 (Karpas-299 cell line): 0.007 µM | IC50 (cytochrome P450 1A2): > 10 µM | IC50 (cytochrome P450 2C19): > 10 µM | IC50 (L1196M mutant ALK kinase): 0.005 µM | IC50 (cytochrome P450 2D6): > 10 µM | IC50 (cytochrome P450 2C9): > 10 µM

Cc1cc(Nc2ncc(Cl)c(Nc3cn(C)nc3S(=O)(=O)C(C)C)n2)c(OC2CC2)cc1C1CCN(C2COC2)CC1 [Final product 156]
IC50 (Karpas-299 cell line): 0.019 µM | IC50 (cytochrome P450 1A2): > 10 µM | IC50 (cytochrome P450 2C19): > 10 µM | IC50 (L1196M mutant ALK kinase): 0.01 µM | IC50 (cytochrome P450 2D6): > 10 µM | IC50 (cytochrome P450 2C9): > 10 µM

Cc1cc(Nc2ncc(Cl)c(Nc3cn(C)nc3S(=O)(=O)C(C)C)n2)c(OC2CC2)cc1C1CC(C)N(C)C(C)C1 (stereo not drawn) [Final product 95]
IC50 (Karpas-299 cell line): 0.004 µM | IC50 (cytochrome P450 1A2): > 10 µM | IC50 (cytochrome P450 2C19): > 10 µM | IC50 (L1196M mutant ALK kinase): 0.003 µM | IC50 (cytochrome P450 2D6): > 10 µM | IC50 (cytochrome P450 2C9): > 10 µM

Cc1cc(Nc2ncc(Cl)c(Nc3cn(C)nc3S(=O)(=O)C(C)C)n2)c(OC2CC2)cc1C1CCN(S(C)(=O)=O)CC1 [Final product 167, 5-chloro-N^2-(2-cyclopropoxy-5-methyl-4-(1-methanesulfonyl-piperidin-4-yl)-phenyl)-N^4-(3-(isopropylsulfonyl)-1-methyl-1H-pyrazol-4-yl)pyrimidin-2,4-diamine]
IC50 (Karpas-299 cell line): 0.018 µM | IC50 (cytochrome P450 1A2): > 10 µM | IC50 (cytochrome P450 2C19): > 10 µM | IC50 (L1196M mutant ALK kinase): 0.011 µM | IC50 (cytochrome P450 2D6): > 10 µM | IC50 (cytochrome P450 2C9): > 10 µM

Cc1cc(Nc2ncc(Cl)c(Nc3cn(C)nc3S(=O)(=O)C(C)C)n2)c(OC2CC2)cc1C1CCN(C(=O)CC#N)CC1 [Final product 166, 1-cyano acetyl-4-(4-(5-chloro-4-(3-(isopropylsulfonyl)-1-methyl-1H-pyrazol-4-amino)pyrimidin-2-amine)-5-cyclopropoxy-2-methylphenyl)piperidine]
IC50 (Karpas-299 cell line): 0.008 µM | IC50 (cytochrome P450 1A2): > 10 µM | IC50 (cytochrome P450 2C19): > 10 µM | IC50 (L1196M mutant ALK kinase): 0.006 µM | IC50 (cytochrome P450 2D6): > 10 µM | IC50 (cytochrome P450 2C9): > 10 µM
